Literature values in patent publication US20070248696A1, “Composition and method for enhancing neuromuscular facilitation and cognitive functions” (priority 2006, published 2007).

Tests used:
[1] = relative to vitamin E
[2] = relative to vitamin E; remark: listed apart in the source
[3] = in vivo

SMILES: O=C(O[C@@H]1Cc2c(O)cc(O)cc2O[C@@H]1c1cc(O)c(O)c(O)c1)c1cc(O)c(O)c(O)c1 [EGCG, (−)-epigallocatechin-3-gallate]
- more powerful than vitamin E in neutralizing pro-oxidants and free radicals that attack lipids [1]: over 200 times
- more potent than vitamin E in reducing oxidation [2]: 20 times

SMILES: C[N+](C)(C)CCOP(=O)(O)OP(=O)([O-])OC[C@H]1O[C@@H](n2ccc(N)nc2=O)[C@H](O)[C@@H]1O [CDP-choline, cytidine 5′-diphosphocholine]
- motor performance and coordination in the rotorod and open field tests [3]: improves motor performance and coordination
